Assay [1] concerns the target T1, VMAT2 (Rattus norvegicus, UniProt Q01827).
T1 construct: conducted using isolated synaptic vesicle preparations; from tissue; host or cells: rat striatum, isolated synaptic vesicles
Description: [3H]Dihydrotetrabenazine ([3H]DTBZ) binding assay, vesicular preparation. As to conditions: rat brain synaptic vesicles, 3 nM [3H]DTBZ; read-out: Inhibition of [3H]DTBZ binding (Ki) VMAT2.
Description: [^3H]Dihydrotetrabenazine ([^3H]DTBZ) Binding Assay, Vesicular Preparation
The resulting supernatant (S1) was then centrifuged at 22,000 g for 10 min at 4° C. The synaptosomal pellets (P2) were homogenized in 18 mL of ice-cold Milli-Q water and exposed for 5 min for lysing synaptosomes. Osmolarity was restored by addition of 2 mL of 25 mM HEPES with 100 mM dipotassium tartrate (pH 7.5). Samples were centrifuged at 20,000 g for 20 min at 4° C. to remove lysed synaptosomal membranes. MgSO4 (1 mM) was added to the supernatant (S3), and was centrifuged at 100,000 g for 45 min at 4° C. […] Aliquot parts (100 μL) of suspension of vesicle membrane protein were incubated in assay buffer (25 mM HEPES, 100 mM dipotassium tartrate, 5 mM MgSO4, 0.1 mM EDTA and 0.05 mM EGTA, pH 7.5, at 25° C.) in the presence of 3 nM [^3H]DTBZ and at least 7 concentrations (1 nM-1 mM) of compound for 1 hr at room temperature. Nonspecific binding was determined in the presence of 20 μM tetrabenazine, a standard compound. Assays were performed in duplicate using a 96-well plate format. Reactions were terminated by filtration of samples on a Unifilter-96 GF/B filter plates (presoaked in 0.5% polyethylenimine), using a FilterMate harvester (Packard BioScience Co., Meriden, Conn.).
After washing 5 times with 350 μL of the ice-cold wash buffer (25 mM HEPES, 100 mM dipotassium tartrate, 5 mM MgSO4 and 10 mM NaCl, pH 7.5), filter plates were dried, sealed and each well filled with 40 μL Packard's MicroScint 20 cocktail. Bound [^3H]DTBZ was measured using a Packard TopCount NXT scintillation counter with a Packard Windows NT based operating system.

Assay [2] deals with T1, VMAT2. Description: [3H]Dopamine ([3H]DA) uptake assay, vesicular preparation. In kind it is biochemical.
Description: [^3H]Dopamine ([^3H]DA) Uptake Assay, Vesicular Preparation
Homogenates were centrifuged (2,000 g for 10 min at 4° C.), and then the supernatants were centrifuged (10,000 g for 30 min at 4° C.). Pellets were resuspended in 2 ml of 0.32 M sucrose solution and subjected to osmotic shock by adding 7 ml of ice-cold MilliQ water to the preparation. After 1 min, osmolarity was restored by adding 900 μl of 0.25 M HEPES buffer and 900 μl of 1.0 M potassium tartrate solution. Samples were centrifuged (20,000 g for 20 min at 4° C.), and the supernatants were centrifuged (55,000 g for 1 hr at 4° C.), followed by addition of 100 μl of 10 mM MgSO4, 100 μl of 0.25 M HEPES and 100 μl of 1.0 M potassium tartrate solution prior to the final centrifugation (100,000 g for 45 min at 4° C.). Final pellets were resuspended in 2.4 ml of assay buffer (25 mM HEPES, 100 mM potassium tartrate, 50 μM EGTA, 100 μM EDTA, 1.7 mM ascorbic acid, 2 mM ATP-Mg^2+, pH 7.4). Aliquots of the vesicular suspension (100 μl) were added to tubes containing assay buffer, various concentrations of compound (0.1 nM-10 mM) and 0.1 μM [^3H]DA in a final volume of 500 and incubated at 37° C. for 8 min. […] Reactions were terminated by filtration, and radioactivity retained by the filters was determined by liquid scintillation spectrometry (Tri-Carb 2100TR liquid scintillation analyzer; PerkinElmer Life and Analytical Sciences, Boston, Mass.).
For another assay, the target named is T2, hERG channel (Homo sapiens, UniProt Q12809).
T2 construct: expressed in transfected cells
Description: [3H]Dofetilide binding assay, HEK-293 cell membrane preparation. The settings on record: HEK-293 cell membranes expressing hERG, 5 nM [3H]dofetilide; read-out: hERG [3H]Dofetilide Binding Inhibition Mean ± SEM (IC50). The method, then:
[^3H]Dofetilide Binding Assay, HEK-293 Cell Membrane Preparation
[^3H]Dofetilide binding assays were conducted using commercially available HEK-293 cell membranes which stably express the hERG channel. Membranes were suspended in assay buffer (50 mM Tris, 10 mM KCl, 1 mM MgCl2, pH 7.4) prior to the experiment. Assays were performed in duplicate in a total volume of 250 μL. Aliquots of the HEK-293 cell membrane suspension which contained 5 μg membrane protein were added to tubes containing assay buffer, 5 nM [^3H]dofetilide and a range of concentrations of analog (10 nM-100 μM). Nonspecific binding was determined in the presence of amitriptyline (1 mM). Samples were incubated for 1 hr. at 24° C., followed by rapid filtration. Radioactivity retained by the filters was determined by liquid scintillation spectrometry as described above for the [^3H]DA uptake assay. The affinity for the [^3H]dofetilide binding site on the hERG channel expressed in the HEK-293 cellular membrane was determined from the analog concentration response curves.

Assay [3] has as its target T3, dopamine transporter (DAT) (Rattus norvegicus, UniProt P23977).
T3 construct: from tissue; host or cells: rat striatum, synaptosomes
Description: [3H]DA uptake assay, striatal synaptosomal preparation. In kind it is biochemical. The settings on record: rat striatal synaptosomes; read-out: DAT [3H]DA Uptake Inhibition Mean ± SEM (Ki). The method, then:
(§1) [^3H]DA and [^3H]5-HT Uptake Assay, Synaptosomal Preparation
(§2) [^3H]DA and [^3H]5-HT uptake into striatal synaptosomes was determined to evaluate compound inhibition of the dopamine transporter (DAT) and the serotonin transporter (SERT), respectively. […] Homogenates were centrifuged at 2000 g for 10 min at 4° C., and resulting supernatants were centrifuged at 20,000 g for 17 min at 4° C. […] Assays were performed in duplicate in a total volume of 500 (for DAT assays) or 250 μL (for SERT assays). […] Reactions were terminated by addition of 3 mL of ice-cold assay buffer and subsequent filtration and radioactivity retained by the filters was determined by liquid scintillation spectrometry (Tri-Carb 2100TR liquid scintillation analyzer; PerkinElmer Life and Analytical Sciences, Boston, Mass.).

Assay [4] concerns the target T4, serotonin transporter (SERT) (Rattus norvegicus, UniProt P31652).
T4 construct: from tissue
Description: [3H]5-HT uptake assay, striatal synaptosomal preparation. It is filed as biochemical. The settings on record: rat striatal synaptosomes, GBR-12935 (100 nM) in buffer; read-out: SERT [3H]5-HT Uptake Inhibition Mean ± SEM (Ki). The method, then: as §1, §2

[5] abbreviates: rat striatal synaptic vesicles, 0.1 μM [3H]DA, read-out: [3H]DA Uptake (Ki) VMAT2.
Setting [6] is: synaptic vesicle preparations, summary of Table 1, read-out: inhibition of [3H]DA uptake, Ki.

Results on 15 molecules are retold here after patent US20170226072A1, “1,4-Disubstituted Piperidines, 1,4-Disubstituted Piperazines, 1,4-Disubstituted Diazepines, and 1,3-Disubstituted Pyrrolidine Compounds” (University of Kentucky Research Foundation, priority 2013, published 2017).

In general, Ki refers to the equilibrium dissociation constant of an inhibitor or competing ligand from its target. Usually IC50 stands for the concentration that inhibits the measured activity by half.

T3 sequence (P23977 whole entry): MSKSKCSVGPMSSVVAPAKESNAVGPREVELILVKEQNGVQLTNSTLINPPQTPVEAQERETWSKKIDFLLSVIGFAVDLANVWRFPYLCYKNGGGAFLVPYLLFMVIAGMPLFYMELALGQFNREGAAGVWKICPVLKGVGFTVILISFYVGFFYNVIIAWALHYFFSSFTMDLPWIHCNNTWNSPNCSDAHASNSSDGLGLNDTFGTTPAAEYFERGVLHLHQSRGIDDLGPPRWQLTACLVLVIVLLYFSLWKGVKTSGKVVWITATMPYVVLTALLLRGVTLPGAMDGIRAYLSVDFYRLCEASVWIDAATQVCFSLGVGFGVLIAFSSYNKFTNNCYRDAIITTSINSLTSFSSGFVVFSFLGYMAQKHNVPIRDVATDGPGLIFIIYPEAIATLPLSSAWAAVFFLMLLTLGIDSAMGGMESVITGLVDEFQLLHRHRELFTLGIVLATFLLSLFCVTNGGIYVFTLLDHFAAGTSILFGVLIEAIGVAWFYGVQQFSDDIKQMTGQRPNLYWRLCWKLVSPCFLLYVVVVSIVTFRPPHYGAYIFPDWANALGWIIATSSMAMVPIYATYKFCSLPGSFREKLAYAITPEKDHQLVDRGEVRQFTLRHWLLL
T1 sequence (Q01827 whole entry): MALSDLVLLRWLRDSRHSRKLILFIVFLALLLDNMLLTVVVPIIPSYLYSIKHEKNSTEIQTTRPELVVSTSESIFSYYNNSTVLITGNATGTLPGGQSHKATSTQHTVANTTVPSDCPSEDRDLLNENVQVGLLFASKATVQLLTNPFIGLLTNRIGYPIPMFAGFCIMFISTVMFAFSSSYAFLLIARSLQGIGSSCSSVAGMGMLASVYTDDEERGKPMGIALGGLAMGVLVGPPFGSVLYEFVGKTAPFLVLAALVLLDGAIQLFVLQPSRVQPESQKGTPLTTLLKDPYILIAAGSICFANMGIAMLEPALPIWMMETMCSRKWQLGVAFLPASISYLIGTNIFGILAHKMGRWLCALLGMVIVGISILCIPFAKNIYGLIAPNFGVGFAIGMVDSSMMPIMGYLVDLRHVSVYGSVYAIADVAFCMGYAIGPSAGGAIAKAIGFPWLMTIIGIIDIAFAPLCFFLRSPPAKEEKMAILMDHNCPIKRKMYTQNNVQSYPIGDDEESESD
T2 sequence (Q12809 whole entry): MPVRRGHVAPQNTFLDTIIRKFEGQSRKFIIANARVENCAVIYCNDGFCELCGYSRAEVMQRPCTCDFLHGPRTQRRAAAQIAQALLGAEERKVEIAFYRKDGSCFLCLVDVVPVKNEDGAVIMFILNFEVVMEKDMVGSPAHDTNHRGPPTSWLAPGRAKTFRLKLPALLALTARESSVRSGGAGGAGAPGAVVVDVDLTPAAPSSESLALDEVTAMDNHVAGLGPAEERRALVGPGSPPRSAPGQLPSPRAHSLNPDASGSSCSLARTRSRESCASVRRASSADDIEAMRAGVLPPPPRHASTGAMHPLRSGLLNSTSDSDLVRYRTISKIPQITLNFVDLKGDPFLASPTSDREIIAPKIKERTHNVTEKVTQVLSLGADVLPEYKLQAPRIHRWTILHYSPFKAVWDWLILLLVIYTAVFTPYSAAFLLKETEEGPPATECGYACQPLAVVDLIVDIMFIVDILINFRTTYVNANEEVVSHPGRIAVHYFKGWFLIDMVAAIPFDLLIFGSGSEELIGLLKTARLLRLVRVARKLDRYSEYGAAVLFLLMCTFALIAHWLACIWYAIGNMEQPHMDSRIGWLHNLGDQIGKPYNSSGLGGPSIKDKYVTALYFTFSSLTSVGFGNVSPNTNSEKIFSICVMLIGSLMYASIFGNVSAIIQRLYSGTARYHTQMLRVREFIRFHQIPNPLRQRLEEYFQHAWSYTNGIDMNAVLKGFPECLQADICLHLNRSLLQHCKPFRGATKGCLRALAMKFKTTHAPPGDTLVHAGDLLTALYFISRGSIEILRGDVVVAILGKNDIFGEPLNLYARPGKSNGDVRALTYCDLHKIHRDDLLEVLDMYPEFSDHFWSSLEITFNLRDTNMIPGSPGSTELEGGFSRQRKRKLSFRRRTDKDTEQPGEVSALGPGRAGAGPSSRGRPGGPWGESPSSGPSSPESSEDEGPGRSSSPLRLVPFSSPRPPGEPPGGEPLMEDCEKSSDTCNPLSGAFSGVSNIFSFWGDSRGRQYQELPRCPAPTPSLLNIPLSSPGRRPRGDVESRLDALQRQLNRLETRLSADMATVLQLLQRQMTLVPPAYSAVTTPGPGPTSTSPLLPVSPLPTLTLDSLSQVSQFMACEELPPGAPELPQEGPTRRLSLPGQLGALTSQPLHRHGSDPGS
T4 sequence (P31652 whole entry): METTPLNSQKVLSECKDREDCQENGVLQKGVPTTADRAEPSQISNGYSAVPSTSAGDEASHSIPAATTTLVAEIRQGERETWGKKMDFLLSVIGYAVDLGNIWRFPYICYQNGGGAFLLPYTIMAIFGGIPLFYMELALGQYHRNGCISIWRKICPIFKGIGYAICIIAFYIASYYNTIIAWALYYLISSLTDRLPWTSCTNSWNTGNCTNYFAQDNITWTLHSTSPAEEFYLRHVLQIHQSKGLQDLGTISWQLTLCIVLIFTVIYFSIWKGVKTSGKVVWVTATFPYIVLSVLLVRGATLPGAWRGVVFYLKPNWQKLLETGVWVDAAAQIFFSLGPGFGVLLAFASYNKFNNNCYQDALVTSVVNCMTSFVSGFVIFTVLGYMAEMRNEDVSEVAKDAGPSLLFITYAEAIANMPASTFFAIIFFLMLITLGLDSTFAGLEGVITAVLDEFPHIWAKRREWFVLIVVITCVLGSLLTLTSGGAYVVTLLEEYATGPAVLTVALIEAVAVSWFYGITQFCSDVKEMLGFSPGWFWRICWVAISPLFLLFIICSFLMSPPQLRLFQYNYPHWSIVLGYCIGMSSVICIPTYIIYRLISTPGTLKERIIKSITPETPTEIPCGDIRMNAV

In the case of `COc1cccc(CCN2CCC(CCc3ccccc3)CC2)c1` [Compound 2], the Ki on VMAT2 [1] was found to be 265 ± 38 nM; at VMAT2 [2] (setting [5]) it was 22 ± 0.87 nM; in assay [3] it was 3130 ± 190 nM; in assay [4], 1150 ± 90 nM. Besides, on hERG channel, the IC50 is 489 ± 84.7 nM.

On to `COc1cc(OC)c(OC)cc1CCC1CCN(CCc2ccccc2)CC1` [Compound 9], for which the Ki at VMAT2 [1] amounted to 380 ± 49 nM; on VMAT2 [2] (setting [5]) it was 94 ± 9.6 nM; in assay [3] it was 5460 ± 120 nM. In addition, the concentration for half-maximal inhibition (IC50) on hERG channel came out at 8100 ± 585 nM.

As to `COc1ccccc1CCC1CCN(CCc2ccccc2Cl)CC1` [Compound 28, 1-(2-chlorophenethyl)-4-(2-methoxyphenethyl)piperidine], the Ki is 190 ± 20 nM at VMAT2 [1], 20 ± 3 nM at VMAT2 [2] (setting [5]), 9 to 20 nM on VMAT2 [2] (setting [6]) and 1250 ± 307 nM in assay [3]. Also, the 50% inhibitory concentration (IC50) on hERG channel worked out at 1190 ± 181 nM.

Consider `COc1ccccc1CCC1CCN(CCc2ccc(F)cc2)CC1` [Compound 29, 1-(4-fluorophenethyl)-4-(2-methoxyphenethyl)piperidine], for which the Ki at VMAT2 [1] is 400 ± 97 nM; on VMAT2 [2] (setting [5]), 13 ± 2.1 nM; at VMAT2 [2] (setting [6]), 9 to 20 nM; in assay [3] it was 4130 ± 440 nM; in assay [4] it was 580 ± 70 nM. In addition, the IC50 at hERG channel is 347 ± 18.8 nM.

Turning to `COc1cccc(CCN2CCC(CCc3ccc(OC)cc3F)CC2)c1` [Compound 38, 4-(2-fluoro-4-methoxyphenethyl)-1-(3-methoxyphenethyl)piperidine], the values for the Ki (on VMAT2 [1]; at VMAT2 [2] (setting [5]); in assay [3]) were 190 ± 9 nM, 83 ± 3.8 nM and 2940 ± 270 nM, respectively. For the same molecule, the IC50 at hERG channel was 479 ± 64.3 nM.

Consider `COc1ccc(CCC2CCN(CCc3ccc(F)cc3)CC2)c(F)c1` [Compound 41], for which the Ki on VMAT2 [1] stood at 600 ± 75 nM; at VMAT2 [2] (setting [5]) it was 60 ± 8.2 nM; in assay [3], 3480 ± 415 nM. For the same molecule, the IC50 at hERG channel came to 3600 ± 1220 nM.

Turning to `COc1cccc(CCN2CCC(CCc3cc(F)cc(F)c3)CC2)c1` [Compound 44], the inhibitory constant (Ki) at VMAT2 [1] amounted to 250 ± 3 nM; at VMAT2 [2] (setting [5]), 28 ± 2.7 nM; in assay [3], 1910 ± 568 nM. Also, the IC50 at hERG channel is 477 ± 42.9 nM.

Regarding `c1ccc(CCN2CCN(CCc3ccccc3)CC2)cc1` [Compound 54, 1,4-diphenethylpiperazine], the Ki is 3050 ± 640 nM on VMAT2 [1], 110 ± 12 nM at VMAT2 [2] (setting [5]), 13600 ± 2690 nM in assay [3] and 11400 ± 4140 nM in assay [4]. In addition, the IC50 at hERG channel came out at 3390 ± 1940 nM.

Take `COc1ccccc1CCN1CCN(CCc2ccccc2OC)CC1` [Compound 55]: the IC50 on hERG channel was determined as 1020 ± 180 nM. Also, the values for the Ki in assay [3] and in assay [4] were 14400 ± 456 nM and 1580 ± 415 nM, respectively.

Take `COc1cccc(CCN2CCN(CCc3cccc(OC)c3)CC2)c1` [Compound 56]: on hERG channel, the IC50 came to 1490 ± 204 nM. For the same molecule, the Ki amounted to 7900 ± 2890 nM in assay [3] and 3620 ± 1300 nM in assay [4].

`Clc1ccccc1CCN1CCN(CCc2ccccc2Cl)CC1` [Compound 58]: the IC50 at hERG channel is 1080 ± 175 nM. The Ki was found to be 6310 ± 1010 nM in assay [3] and 3340 ± 1530 nM in assay [4].

Turning to `Fc1ccc(CCN2CCN(CCc3ccc(F)cc3)CC2)cc1` [Compound 59], the Ki at VMAT2 [1] was determined as 3710 ± 480 nM; on VMAT2 [2] (setting [5]) it was 58 ± 12 nM; in assay [3] it was 6580 ± 1410 nM; in assay [4], 4950 ± 900 nM. The IC50 on hERG channel amounted to 362 ± 15.5 nM.

In the case of `COc1ccccc1CCN1CCN(CCc2ccccc2)CC1` [Compound 60], on hERG channel, the half-maximal inhibitory concentration (IC50) is 3190 ± 327 nM. Further, the Ki in assay [3] worked out at 12800 ± 4460 nM; in assay [4] it was 2580 ± 415 nM.

Turning to `Clc1ccccc1CCN1CCN(CCc2ccccc2)CC1` [Compound 63], the Ki on VMAT2 [1] amounted to 1590 ± 260 nM; at VMAT2 [2] (setting [5]) it was 63 ± 6.9 nM; in assay [3], 10400 ± 1850 nM. In addition, the IC50 on hERG channel is 2840 ± 287 nM.

For `Fc1ccc(CCN2CCN(CCc3ccccc3)CC2)cc1` [Compound 64], the inhibitory constant (Ki) came to 3860 ± 1010 nM at VMAT2 [1], 88 ± 6.9 nM at VMAT2 [2] (setting [5]), 8040 ± 2570 nM in assay [3] and 4460 ± 727 nM in assay [4]. The half-inhibitory concentration (IC50) at hERG channel came to 2290 ± 475 nM.
